Data as given in paper PMC7497086, “Fluorophore‐Labeled Cyclic Nucleotides as Potent Agonists of Cyclic Nucleotide‐Regulated Ion Channels” (Chembiochem, 2020).
Several values for one entry are separate records, joined by “and”; a condition that tells them apart may be missing. Equal values may be shown once. Entries after “also recorded” stand apart in the source; their conditions may differ.

What was measured:
Format in all cases: biochemical
[1] = molecular target: T1, Heterotetrameric CNGA2:A4:B1b channels (Rattus norvegicus, UniProt A0A8I5ZN27+Q00195+Q64359); test: Patch-clamp activation of heterotetrameric olfactory CNGA2:A4:B1b channels, inside-out patches of Xenopus oocytes; details: for H a (Hill coefficient of activation) / EC50: inside-out patches, +10 mV; for EC50: concentration of half maximum activation
T1 construct: expressed in transfected cells; host or cells: Xenopus laevis oocytes injected with cRNA (CNGA2:CNGA4:CNGB1b at 2:1:1)
T1 sequence (Q64359 whole entry, one chain of several): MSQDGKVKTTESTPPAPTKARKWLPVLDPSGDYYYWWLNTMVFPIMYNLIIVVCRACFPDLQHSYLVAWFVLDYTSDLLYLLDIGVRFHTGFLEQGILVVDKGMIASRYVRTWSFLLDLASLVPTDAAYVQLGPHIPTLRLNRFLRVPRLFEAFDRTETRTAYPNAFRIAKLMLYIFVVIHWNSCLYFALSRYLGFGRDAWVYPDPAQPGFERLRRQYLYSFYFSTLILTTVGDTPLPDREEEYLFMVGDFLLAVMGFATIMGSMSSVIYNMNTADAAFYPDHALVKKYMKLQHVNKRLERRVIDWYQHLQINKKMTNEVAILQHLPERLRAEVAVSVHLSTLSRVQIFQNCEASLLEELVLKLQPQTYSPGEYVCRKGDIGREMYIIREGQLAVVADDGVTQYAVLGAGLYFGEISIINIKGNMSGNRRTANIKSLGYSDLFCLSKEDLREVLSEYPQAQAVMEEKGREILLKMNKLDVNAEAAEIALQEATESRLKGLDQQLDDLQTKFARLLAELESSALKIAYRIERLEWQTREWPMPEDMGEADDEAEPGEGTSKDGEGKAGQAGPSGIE
T1 sequence (A0A8I5ZN27 1-858 isoform A0A8I5ZN27-2, one chain of several): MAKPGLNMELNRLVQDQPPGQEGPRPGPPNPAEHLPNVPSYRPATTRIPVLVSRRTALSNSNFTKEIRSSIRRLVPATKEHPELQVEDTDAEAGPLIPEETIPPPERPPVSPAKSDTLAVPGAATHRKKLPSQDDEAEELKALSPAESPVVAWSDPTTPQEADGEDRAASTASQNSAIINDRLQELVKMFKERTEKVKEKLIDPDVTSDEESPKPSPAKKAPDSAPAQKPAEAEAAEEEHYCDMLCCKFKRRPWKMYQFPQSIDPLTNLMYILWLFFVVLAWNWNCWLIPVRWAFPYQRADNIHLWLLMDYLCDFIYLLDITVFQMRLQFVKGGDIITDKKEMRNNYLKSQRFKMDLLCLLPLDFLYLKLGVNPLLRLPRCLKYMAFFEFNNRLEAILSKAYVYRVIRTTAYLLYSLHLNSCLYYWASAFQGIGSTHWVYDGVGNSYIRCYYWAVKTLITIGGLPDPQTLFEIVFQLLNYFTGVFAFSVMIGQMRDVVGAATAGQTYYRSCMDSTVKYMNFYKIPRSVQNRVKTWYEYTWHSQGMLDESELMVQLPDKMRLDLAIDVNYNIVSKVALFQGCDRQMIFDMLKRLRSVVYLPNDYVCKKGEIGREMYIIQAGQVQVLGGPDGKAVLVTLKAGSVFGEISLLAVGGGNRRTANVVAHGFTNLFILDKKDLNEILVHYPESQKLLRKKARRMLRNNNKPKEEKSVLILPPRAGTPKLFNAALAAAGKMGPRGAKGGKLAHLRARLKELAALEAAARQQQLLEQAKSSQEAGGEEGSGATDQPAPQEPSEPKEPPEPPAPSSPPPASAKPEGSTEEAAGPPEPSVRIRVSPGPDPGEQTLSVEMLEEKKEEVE
Procedure: First, the effect of the compounds on olfactory CNG channels with natural composition was tested. […] To determine the potency of the ligands, full concentration‐activation relationships were generated. These relationships were fitted with Equation 1 (Experimental Section), yielding the concentration of half maximum activation (EC 50) and the Hill coefficient (H a).
(§1) Molecular biology and heterologous expression of CNG and HCN channels: The subunits CNGA2 (accession No. AF126808), CNGA4 (accession no. U12623) and CNGB1b (accession no. AF068572) of rat olfactory channels as well as mouse HCN2 channels (NM008226) were subcloned in front of the T7 promoter of pGEMHEnew. The corresponding cRNAs were produced with the mMESSAGE mMACHINE T7 Kit (Ambion, Austin, TX, USA).
(§2) Oocytes at stages IV and V were injected with 50–130 ng cRNA encoding either CNGA2, CNGA2 : CNGA4 : CNGB1b (2 : 1 : 1 ratio) or HCN2 channels either manually or mediated by an injection robot (RoboInject®). The injected oocytes were incubated at 18 °C for up to 6 days in Barth's medium containing (in mM) 84 NaCl, 1 KCl, 2.4 NaHCO3, 0.82 MgSO4, 0.41 CaCl2, 0.33 Ca(NO3)2, 7.5 TRIS, cefuroxime (4.0 μg/mL) and penicillin/streptomycin (100 μg/mL), pH 7.4.
(§3) Electrophysiology: Macroscopic currents were recorded in inside‐out patches of the oocytes expressing hundreds to several thousand of the desired channels by using the patch‐clamp technique. The patch pipettes were pulled from quartz tubing (P‐2000, Sutter Instrument, Novato, USA) with an outer and inner diameter of 1.0 and 0.7 mm (VITROCOM, New Jersey, USA). The corresponding pipette resistance was 0.9–2.3 MΩ. The bath and pipette solution contained (in mM): 150 KCl, 1 EGTA, 20 HEPES (pH 7.4) for CNG channel measurements. For HCN channel measurements the bath solution contained (in mM): 100 KCl, 10 EGTA, 10 HEPES (pH 7.2) and the pipette (in mM) 120 KCl, 10 HEPES, 1 CaCl2 (pH 7.2). All experiments were performed at room temperature by using an Axopatch 200B amplifier (Axon Instruments, Foster City, CA, USA). Electrophysiology was controlled by the Patchmaster‐software (HEKA Elektronik Dr. Schulze GmbH, Lambrecht, Germany). The sampling rate was 5 kHz and the filter implemented in the amplifier (4‐pole Bessel) was set to 2 kHz. Measurements in HCN2 channels were started 3.5 minutes after patch excision, to minimize run down phenomena.18 The solutions with the different ligand concentrations to be studied were applied by a multi‐barrel device to the patches with a flow rate of 0.8 to 1.2 mL/min. The concentration of the fluorescent ligands was verified by UV/Vis spectroscopy.
(§4) where I is the actual current amplitude and I max the maximum current amplitude at saturating concentration of each cyclic nucleotide. EC 50 is the ligand concentration generating half maximum current and H a the respective Hill coefficient.

[2] = molecular target: T2, Homotetrameric CNGA2 channels (Rattus norvegicus, UniProt Q00195); test: Patch-clamp activation of homotetrameric CNGA2 channels, inside-out patches of Xenopus oocytes; details: for H a (Hill coefficient of activation) / EC50: inside-out patches; for EC50: concentration of half maximum activation
T2 construct: expressed in transfected cells; host or cells: Xenopus laevis oocytes injected with CNGA2 cRNA
T2 sequence (Q00195 1-664): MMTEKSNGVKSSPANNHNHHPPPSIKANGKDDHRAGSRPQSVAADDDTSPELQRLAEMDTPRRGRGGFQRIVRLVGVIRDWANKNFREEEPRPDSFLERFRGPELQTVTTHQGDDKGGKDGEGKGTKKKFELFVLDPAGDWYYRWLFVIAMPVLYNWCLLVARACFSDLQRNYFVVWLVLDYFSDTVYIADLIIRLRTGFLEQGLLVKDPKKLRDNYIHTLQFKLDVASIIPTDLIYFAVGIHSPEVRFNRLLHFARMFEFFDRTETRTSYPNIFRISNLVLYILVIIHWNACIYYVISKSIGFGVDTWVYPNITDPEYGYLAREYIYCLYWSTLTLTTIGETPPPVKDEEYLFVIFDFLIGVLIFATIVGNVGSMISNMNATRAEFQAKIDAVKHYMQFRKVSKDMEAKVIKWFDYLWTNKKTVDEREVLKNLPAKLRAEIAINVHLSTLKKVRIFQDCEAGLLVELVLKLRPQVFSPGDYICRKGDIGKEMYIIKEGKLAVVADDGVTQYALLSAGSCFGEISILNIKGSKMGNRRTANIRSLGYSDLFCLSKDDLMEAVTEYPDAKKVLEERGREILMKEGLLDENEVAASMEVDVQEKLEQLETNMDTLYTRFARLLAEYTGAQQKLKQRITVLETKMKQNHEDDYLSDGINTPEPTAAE
From the text: Moreover, we studied the effect of the nucleotide derivatives on homotetrameric CNGA2 channels.
as §1, §2, §3, §4

[3] = molecular target: T3, homotetrameric HCN2 channels (Mus musculus, UniProt O88703); test: Patch-clamp activation of homotetrameric HCN2 channels, inside-out patches of Xenopus oocytes; details: 5 μM ligand; pulse from -30 mV to -130 mV; compared with saturating cAMP (20 μM)
T3 construct: expressed in transfected cells; host or cells: Xenopus laevis oocytes injected with HCN2 cRNA
T3 sequence (O88703 1-863): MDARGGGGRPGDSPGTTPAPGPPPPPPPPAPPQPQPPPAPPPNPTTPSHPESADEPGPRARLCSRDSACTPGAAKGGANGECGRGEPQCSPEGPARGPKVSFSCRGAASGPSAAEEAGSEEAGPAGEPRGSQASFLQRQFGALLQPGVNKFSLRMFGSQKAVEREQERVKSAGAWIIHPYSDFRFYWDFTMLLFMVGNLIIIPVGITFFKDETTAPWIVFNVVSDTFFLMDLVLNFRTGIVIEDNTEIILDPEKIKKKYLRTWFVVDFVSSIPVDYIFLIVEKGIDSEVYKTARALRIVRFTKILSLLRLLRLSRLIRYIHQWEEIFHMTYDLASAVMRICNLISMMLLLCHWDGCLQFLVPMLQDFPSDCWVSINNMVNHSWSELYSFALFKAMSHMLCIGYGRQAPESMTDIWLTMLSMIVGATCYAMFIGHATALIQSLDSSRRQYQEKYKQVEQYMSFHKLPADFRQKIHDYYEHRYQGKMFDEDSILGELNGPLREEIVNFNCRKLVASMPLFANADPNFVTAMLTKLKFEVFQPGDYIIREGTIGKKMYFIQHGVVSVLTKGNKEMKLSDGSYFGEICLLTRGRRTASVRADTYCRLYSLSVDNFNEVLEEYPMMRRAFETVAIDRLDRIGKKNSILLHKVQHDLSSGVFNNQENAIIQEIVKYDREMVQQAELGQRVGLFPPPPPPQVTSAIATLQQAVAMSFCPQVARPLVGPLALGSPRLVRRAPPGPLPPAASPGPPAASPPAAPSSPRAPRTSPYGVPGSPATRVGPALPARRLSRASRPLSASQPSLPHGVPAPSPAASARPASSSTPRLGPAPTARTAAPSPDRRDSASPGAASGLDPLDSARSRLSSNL
Procedure: On these channels the potency of cGMP and its derivatives is negligibly small. These measurements were performed in inside‐out patches as well. The channels were activated from a holding potential of −30 mV by a hyperpolarizing voltage pulse to −130 mV, followed by a short pulse to −100 mV, as described in the inset of Figure 3A. All recordings were carried out in the absence of a ligand at first and then with a solution containing 5 μM of the cyclic nucleotide to be tested.
as §1
The oocytes were incubated for 105 min in Ca^2+‐free Barth's solution containing collagenase A (3 mg/mL; Roche, Grenzach‐Wyhlen, Germany) and (in mM) 82.5 NaCl, 2 KCl, 1 MgCl2, 5 HEPES, pH 7.4. […]
Electrophysiology: Macroscopic currents were recorded in inside‐out patches of the oocytes expressing hundreds to several thousand of the desired channels by using the patch‐clamp technique. […]

Row | SMILES | effect at elevated concentrations ([1]; elevated concentrations) | H a (Hill coefficient of activation) [1] | EC50 [1] [µM] | H a (Hill coefficient of activation) [2] | EC50 [2] [µM] | EC 50 (in words) [2] | agonist efficacy ([1]; current maxima normalized to saturating cAMP (500 μM)) | effect on HCN2 current (activation speed and current amplitude) [3] | efficacy of channel activation ([2]; relative to maximum activation)
1 | NCCCCCc1ccc(Sc2nc3c(N)ncnc3n2[C@@H]2O[C@@H]3COP(=O)(O)O[C@H]3[C@H]2O)cc1 [Compound 6] | inhibitory effect | 2.25±0.08 | 0.75 ± 0.01 | 2.51±0.05 | 4.72 ± 0.04 | – | – | accelerated the current and enhanced the amplitude | –
2 | CC1(C)C2=C3C=C4C5=[N+](CCC4OC3CCN2c2ccc(CC(=O)NCCCCCc3ccc(Sc4nc6c(N)ncnc6n4[C@@H]4O[C@@H]6COP(=O)(O)O[C@H]6[C@H]4O)cc3)cc21)c1ccc(S(=O)(=O)[O-])cc1C5(C)C (stereo partly shown) [Compound 7] | – | 2.26±0.29 | 0.9 ± 0.04 | 1.39 and 1.39±0.07 | 10 ± 0.5 | – | – | – | did not generate maximum activation at 100 μM
3 | NCCCCCc1ccc(Sc2nc3c(=O)[nH]c(N)nc3n2[C@@H]2O[C@@H]3COP(=O)(O)O[C@H]3[C@H]2O)cc1 [Compound 9] | – | 1.55±0.08 | 0.37 ± 0.01 | 2.52±0.08 | 0.25 ± 0.01 | nanomolar range | – | – | –
4 | NCCCCCc1ccc(-c2nc3c(N)ncnc3n2[C@@H]2O[C@@H]3COP(=O)(O)O[C@H]3[C@H]2O)cc1 [Compound 12] | – | 2.23±0.05 | 10.7 ± 0.1 | 2.14±0.10 | 16.3 ± 0.5 | – | only a partial agonist | no effect; also recorded: almost ineffective | –
5 | Nc1ncnc2c1ncn2[C@@H]1O[C@@H]2COP(=O)(O)O[C@H]2[C@H]1O [cAMP, reference compound] | – | 2.08±0.12 | – | – | – | – | – | – | –

The next lines start with results.

Row | effect at elevated concentrations ([1]; elevated concentrations) | H a (Hill coefficient of activation) [1] | EC50 [1] [µM] | H a (Hill coefficient of activation) [2] | EC50 [2] [µM] | EC 50 (in words) [2] | agonist efficacy ([1]; current maxima normalized to saturating cAMP (500 μM)) | SMILES | effect on HCN2 current (activation speed and current amplitude) [3] | efficacy of channel activation ([2]; relative to maximum activation)
6 | – | 1.74±0.11 | 7.02 ± 0.26 | 2.28±0.28 | 2.41 ± 0.15 | – | – | NCCCCCc1ccc(-c2nc3c(=O)[nH]c(N)nc3n2[C@@H]2O[C@@H]3COP(=O)(O)O[C@H]3[C@H]2O)cc1 [Compound 13] | – | –
7 | – | 2.11±0.23 | 1.36 ± 0.07 | 2.48±0.05 | 1.77 ± 0.02 | – | – | Nc1nc2c(ncn2[C@@H]2O[C@@H]3COP(=O)(O)O[C@H]3[C@H]2O)c(=O)[nH]1 [cGMP, reference compound] | – | –
